Species on record: Rattus norvegicus
Experiment: Open TG-GATES - Regimen: Single
Type: toxicity, organism-based, Sprague-Dawley
Design: regimen Single, gender Male, age 6 weeks
Conditions: in vivo, po, route gavage; for gamma-GTP / A/G / ALP / AST / BUN / CRE / Ca / Cl / DBIL / GLC / K / LDH / Na / PL / RALB / TBIL / TC / TG / ALT / IP / TP: tissue Plasma; for APTT / Bas / Eos / Fbg / Hb / Ht / Lym / MCH / MCHC / MCV / Mono / Neu / PT / Plat / RBC / Ret / WBC: tissue Blood; for KIDNEY_L / KIDNEY_R / KIDNEY_TOTAL: tissue Kidney; for LIVER: tissue Liver
[1] = 15 mg/kg, 3 h, dose level Middle
[2] = 15 mg/kg, 6 h, dose level Middle

SMILES: COc1ccc2c(c1)c(CC(=O)O)c(C)n2C(=O)c1ccc(Cl)cc1 [INDOMETHACIN]
- gamma-GTP (5 mg/kg, 9 h, dose level High): 2.6 IU/L
- A/G (5 mg/kg, 9 h, dose level Low): 1.7
- ALP (5 mg/kg, 9 h, dose level Low): 793.6 IU/L
- AST (5 mg/kg, 9 h, dose level Low): 72.6 IU/L
- BUN (5 mg/kg, 9 h, dose level Low): 9.8 mg/dL
- CRE (5 mg/kg, 9 h, dose level Low): 0.3 mg/dL
- Ca (5 mg/kg, 9 h, dose level Low): 10.3 mg/dL
- Cl (5 mg/kg, 9 h, dose level Low): 104 meq/L
- DBIL (5 mg/kg, 9 h, dose level Low): 0.076 mg/dL
- GLC (5 mg/kg, 9 h, dose level Low): 197.6 mg/dL
- K (5 mg/kg, 9 h, dose level Low): 3.8 meq/L
- LDH (5 mg/kg, 9 h, dose level Low): 194 IU/L
- Na (5 mg/kg, 9 h, dose level Low): 141.4 meq/L
- PL (5 mg/kg, 9 h, dose level Low): 137 mg/dL
- RALB (5 mg/kg, 9 h, dose level Low): 3.3 g/dL
- TBIL (5 mg/kg, 9 h, dose level Low): 0.1 mg/dL
- TC (5 mg/kg, 9 h, dose level Low): 76.2 mg/dL
- TG (5 mg/kg, 9 h, dose level Low): 31.8 mg/dL
- gamma-GTP (5 mg/kg, 9 h, dose level Low): 1.2 IU/L
- TERMINAL_BW (5 mg/kg, 24 h, dose level High): 211.4 g
- TERMINAL_BW (5 mg/kg, 24 h, dose level Low): 236.2 g
- APTT (5 mg/kg, 24 h, dose level High): 17.1 s
- Bas (5 mg/kg, 24 h, dose level High): 0%
- Eos (5 mg/kg, 24 h, dose level High): 0.8%
- Fbg (5 mg/kg, 24 h, dose level High): 232.2 mg/dL
- Hb (5 mg/kg, 24 h, dose level High): 13 g/dL
- Ht (5 mg/kg, 24 h, dose level High): 39.2%
- Lym (5 mg/kg, 24 h, dose level High): 78%
- MCH (5 mg/kg, 24 h, dose level High): 21.9 pg
- MCHC (5 mg/kg, 24 h, dose level High): 33.2%
- MCV (5 mg/kg, 24 h, dose level High): 65.9 fL
- Mono (5 mg/kg, 24 h, dose level High): 8.2%
- Neu (5 mg/kg, 24 h, dose level High): 13.4%
- PT (5 mg/kg, 24 h, dose level High): 12.2 s
- Plat (5 mg/kg, 24 h, dose level High): 100.7 x10_4/uL
- RBC (5 mg/kg, 24 h, dose level High): 595.4 x10_4/ul
- Ret (5 mg/kg, 24 h, dose level High): 9.8%
- WBC (5 mg/kg, 24 h, dose level High): 116.2 x10_2/uL
- APTT (5 mg/kg, 24 h, dose level Low): 18.6 s
- Bas (5 mg/kg, 24 h, dose level Low): 0.8%
- Fbg (5 mg/kg, 24 h, dose level Low): 249.8 mg/dL
- Hb (5 mg/kg, 24 h, dose level Low): 13.2 g/dL
- Ht (5 mg/kg, 24 h, dose level Low): 38.2%
- Lym (5 mg/kg, 24 h, dose level Low): 65.8%
- MCH (5 mg/kg, 24 h, dose level Low): 21.3 pg
- MCHC (5 mg/kg, 24 h, dose level Low): 34.5%
- MCV (5 mg/kg, 24 h, dose level Low): 61.7 fL
- Mono (5 mg/kg, 24 h, dose level Low): 3.2%
- Neu (5 mg/kg, 24 h, dose level Low): 29.2%
- PT (5 mg/kg, 24 h, dose level Low): 11.6 s
- Plat (5 mg/kg, 24 h, dose level Low): 117.7 x10_4/uL
- RBC (5 mg/kg, 24 h, dose level Low): 619.8 x10_4/ul
- Ret (5 mg/kg, 24 h, dose level Low): 7.2%
- WBC (5 mg/kg, 24 h, dose level Low): 111.3 x10_2/uL
- KIDNEY_L (5 mg/kg, 24 h, dose level High): 1 g
- KIDNEY_R (5 mg/kg, 24 h, dose level High): 1 g
- KIDNEY_TOTAL (5 mg/kg, 24 h, dose level High): 1.9 g
- KIDNEY_TOTAL (5 mg/kg, 24 h, dose level Low): 2.1 g
- LIVER (5 mg/kg, 24 h, dose level High): 9.9 g
- LIVER (5 mg/kg, 24 h, dose level Low): 11.3 g
- A/G (5 mg/kg, 24 h, dose level High): 2
- ALP (5 mg/kg, 24 h, dose level High): 879 IU/L
- ALT (5 mg/kg, 24 h, dose level High): 40.4 IU/L
- AST (5 mg/kg, 24 h, dose level High): 70.2 IU/L
- BUN (5 mg/kg, 24 h, dose level High): 15.4 mg/dL
- CRE (5 mg/kg, 24 h, dose level High): 0.5 mg/dL
- Ca (5 mg/kg, 24 h, dose level High): 10.4 mg/dL
- Cl (5 mg/kg, 24 h, dose level High): 106.2 meq/L
- DBIL (5 mg/kg, 24 h, dose level High): 0.006 mg/dL
- GLC (5 mg/kg, 24 h, dose level High): 197.2 mg/dL
- IP (5 mg/kg, 24 h, dose level High): 8.4 mg/dL
- K (5 mg/kg, 24 h, dose level High): 4.9 meq/L
- LDH (5 mg/kg, 24 h, dose level High): 146 IU/L
- Na (5 mg/kg, 24 h, dose level High): 138.8 meq/L
- PL (5 mg/kg, 24 h, dose level High): 133.4 mg/dL
- RALB (5 mg/kg, 24 h, dose level High): 3.7 g/dL
- TBIL (5 mg/kg, 24 h, dose level High): 0.3 mg/dL
- TC (5 mg/kg, 24 h, dose level High): 77.4 mg/dL
- TG (5 mg/kg, 24 h, dose level High): 65.2 mg/dL
- TP (5 mg/kg, 24 h, dose level High): 5.6 g/dL
- gamma-GTP (5 mg/kg, 24 h, dose level High): 1.4 IU/L
- A/G (5 mg/kg, 24 h, dose level Low): 1.5
- ALP (5 mg/kg, 24 h, dose level Low): 830.8 IU/L
- ALT (5 mg/kg, 24 h, dose level Low): 35.8 IU/L
- AST (5 mg/kg, 24 h, dose level Low): 70 IU/L
- BUN (5 mg/kg, 24 h, dose level Low): 13.2 mg/dL
- CRE (5 mg/kg, 24 h, dose level Low): 0.4 mg/dL
- Ca (5 mg/kg, 24 h, dose level Low): 10.7 mg/dL
- Cl (5 mg/kg, 24 h, dose level Low): 103.2 meq/L
- DBIL (5 mg/kg, 24 h, dose level Low): 0.06 mg/dL
- GLC (5 mg/kg, 24 h, dose level Low): 189.4 mg/dL
- IP (5 mg/kg, 24 h, dose level Low): 7.6 mg/dL
- K (5 mg/kg, 24 h, dose level Low): 3.9 meq/L
- LDH (5 mg/kg, 24 h, dose level Low): 234.2 IU/L
- Na (5 mg/kg, 24 h, dose level Low): 141.6 meq/L
- PL (5 mg/kg, 24 h, dose level Low): 144.6 mg/dL
- RALB (5 mg/kg, 24 h, dose level Low): 3.3 g/dL
- TBIL (5 mg/kg, 24 h, dose level Low): 0.1 mg/dL
- TC (5 mg/kg, 24 h, dose level Low): 73.6 mg/dL
- TG (5 mg/kg, 24 h, dose level Low): 82.8 mg/dL
- TERMINAL_BW [1]: 223.8 g
- APTT [1]: 19.8 s
- Bas [1]: 0.6%
- Eos [1]: 0.4%
- Fbg [1]: 232.4 mg/dL
- Hb [1]: 13.8 g/dL
- Ht [1]: 37.8%
- Lym [1]: 74.8%
- MCH [1]: 22.8 pg
- MCHC [1]: 36.5%
- MCV [1]: 62.5 fL
- Mono [1]: 3.4%
- Neu [1]: 19.6%
- PT [1]: 11.6 s
- Plat [1]: 132.9 x10_4/uL
- RBC [1]: 605.2 x10_4/ul
- Ret [1]: 8.5%
- WBC [1]: 104.8 x10_2/uL
- KIDNEY_L [1]: 0.9 g
- KIDNEY_R [1]: 0.9 g
- KIDNEY_TOTAL [1]: 1.9 g
- LIVER [1]: 10.3 g
- A/G [1]: 1.5
- ALP [1]: 827 IU/L
- ALT [1]: 36.2 IU/L
- AST [1]: 73.6 IU/L
- BUN [1]: 13 mg/dL
- CRE [1]: 0.4 mg/dL
- Ca [1]: 10.8 mg/dL
- Cl [1]: 102.6 meq/L
- DBIL [1]: 0.072 mg/dL
- GLC [1]: 209.2 mg/dL
- IP [1]: 9.8 mg/dL
- K [1]: 4.1 meq/L
- LDH [1]: 219.2 IU/L
- Na [1]: 141.2 meq/L
- PL [1]: 151.6 mg/dL
- RALB [1]: 3.3 g/dL
- TBIL [1]: 0.1 mg/dL
- TC [1]: 84.8 mg/dL
- TG [1]: 64.8 mg/dL
- TP [1]: 5.5 g/dL
- gamma-GTP [1]: 1 IU/L
- TERMINAL_BW [2]: 220.7 g
- APTT [2]: 19 s
- Bas [2]: 0%
- Eos [2]: 0.6%
- Fbg [2]: 224 mg/dL
